“And” between values parts separate entries of the source, which are not always exact repeats. Equal entries are not always repeated. “Also recorded” adds a separate entry of the source.
Columns and labels:
MGAT5 enzyme = biological target: T1, MGAT5 enzyme (Homo sapiens, UniProt Q09328); settings: read-out: Km for UDP-GlcNAc; cited from earlier work
T1 sequence (Q09328 1-741): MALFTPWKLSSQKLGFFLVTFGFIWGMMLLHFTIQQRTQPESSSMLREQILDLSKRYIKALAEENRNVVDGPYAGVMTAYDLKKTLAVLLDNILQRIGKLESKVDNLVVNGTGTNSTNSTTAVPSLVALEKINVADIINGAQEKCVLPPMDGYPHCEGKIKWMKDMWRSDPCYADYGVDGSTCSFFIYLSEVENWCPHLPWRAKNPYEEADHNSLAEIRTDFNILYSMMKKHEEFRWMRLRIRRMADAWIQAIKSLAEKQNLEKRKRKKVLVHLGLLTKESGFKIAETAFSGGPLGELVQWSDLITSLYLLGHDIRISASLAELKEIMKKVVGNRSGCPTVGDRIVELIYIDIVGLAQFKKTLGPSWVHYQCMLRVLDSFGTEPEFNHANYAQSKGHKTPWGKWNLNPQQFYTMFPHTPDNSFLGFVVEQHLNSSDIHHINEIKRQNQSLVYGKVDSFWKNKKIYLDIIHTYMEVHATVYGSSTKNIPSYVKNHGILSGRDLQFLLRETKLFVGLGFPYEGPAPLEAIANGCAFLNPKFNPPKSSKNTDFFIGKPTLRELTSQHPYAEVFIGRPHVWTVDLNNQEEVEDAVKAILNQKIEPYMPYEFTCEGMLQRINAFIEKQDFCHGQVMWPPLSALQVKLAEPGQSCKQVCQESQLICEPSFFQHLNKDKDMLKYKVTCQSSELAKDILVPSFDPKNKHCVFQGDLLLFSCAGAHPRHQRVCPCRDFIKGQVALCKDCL

MGAT4 = settings: read-out: Km for UDP-GlcNAc; cited from earlier work
[1] = system: UDP-GlcNAc/UMP transporter; settings: UDP-GlcNAc/UMP transport, model parameter; cited from earlier work
MGAT1 = biological target: T2, MGAT1 (Homo sapiens, UniProt P26572); settings: read-out: Km for UDP-GlcNAc; cited from earlier work
T2 sequence (P26572 1-445): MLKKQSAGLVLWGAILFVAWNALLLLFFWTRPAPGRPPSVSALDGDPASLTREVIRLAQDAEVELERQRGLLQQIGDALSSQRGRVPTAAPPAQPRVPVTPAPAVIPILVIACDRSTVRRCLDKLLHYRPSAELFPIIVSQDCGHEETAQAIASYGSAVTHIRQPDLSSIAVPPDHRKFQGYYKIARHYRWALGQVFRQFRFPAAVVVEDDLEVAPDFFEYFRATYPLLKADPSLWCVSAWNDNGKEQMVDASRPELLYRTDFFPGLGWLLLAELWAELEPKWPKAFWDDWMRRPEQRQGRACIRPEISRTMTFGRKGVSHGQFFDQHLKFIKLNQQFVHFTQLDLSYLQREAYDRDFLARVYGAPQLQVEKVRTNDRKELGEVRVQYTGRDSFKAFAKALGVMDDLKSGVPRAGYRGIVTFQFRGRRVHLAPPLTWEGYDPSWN

MGAT2 = biological target: T3, MGAT2 (Homo sapiens, UniProt Q10469); settings: read-out: Km for UDP-GlcNAc; cited from earlier work
T3 sequence (Q10469 1-447): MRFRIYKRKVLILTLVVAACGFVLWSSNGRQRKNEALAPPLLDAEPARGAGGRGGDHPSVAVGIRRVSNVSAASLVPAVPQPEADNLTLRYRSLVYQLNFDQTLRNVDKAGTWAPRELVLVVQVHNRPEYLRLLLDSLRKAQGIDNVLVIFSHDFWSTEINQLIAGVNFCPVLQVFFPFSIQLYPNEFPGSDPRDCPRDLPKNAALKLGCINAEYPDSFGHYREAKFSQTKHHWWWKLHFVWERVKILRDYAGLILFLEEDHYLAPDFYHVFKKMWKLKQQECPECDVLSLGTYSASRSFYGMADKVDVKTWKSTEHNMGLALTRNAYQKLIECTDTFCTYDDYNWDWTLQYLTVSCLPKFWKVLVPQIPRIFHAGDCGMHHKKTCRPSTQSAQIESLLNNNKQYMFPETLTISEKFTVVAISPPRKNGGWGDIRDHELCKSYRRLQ

CHO cells [2] = assay: MALDI-TOF mass spectroscopy N-glycan profile of CHO cells; format: cell-based, Chinese Hamster; settings: CHO cells treated with inhibitor
Protocol: This was done as a service at the Glycotechnology core facility, a resource of the Glycobiology Research and Training Center (GRTC) at the University of California, San Diego. CD3+ murine T cells (6×10^6), resting PBMCs from human controls and MS subjects (6×10^6) and CHO cells (10×10^6) were lysed with 1% SDS in 100 mM Tris pH 7.4, dialyzed to remove SDS, digested with trypsin to generate glycopeptides and treated with PNGaseF to release the N-glycans. To focus on early processing, N-glycans were desialylated by mild acid digestion prior to permethylation and MALDI-TOF mass spectroscopy. Monoisotopic peaks in the spectra were identified using GlycanMass and GlycoMod online software, with specific targeting of the N-glycan intermediates occurring during Golgi processing.
(§1) For comparison of N-glycan profiles of mice and human MS patients, CHO cells and CHO cells deficient at 5 different steps in the N-glycan pathway (Glucosidase I, Mannosidase I, MGAT1, Mannosidase II and MGAT5, FIG. 7A) were used to define relative L-PHA and Concanavillin A (ConA) lectin staining levels by FACS along with MALDI TOF N-glycan processing profiles. […] Indeed, a human infant with severe human glucosidase I deficiency accumulates Glc3Man (885 A ion in FIG. 16A, 21C) in the urine, a 4 hexose oligomer which derives from the Glucosidase I substrate Glc3Man9GlcNAc2 via endo-mannosidase activity (70). […] Such activity would produce Man8GlcNAc2, Man7GlcNAc2 and Man6GlcNAc2 structures and allow processing by Mannosidase I/II. Indeed, N-glycans of these 3 compositions accumulate in Glucosidase I/II inhibited cells when Mannosidase I activity is blocked with DMN (69). The larger structures Glc3Man9GlcNAc2 (mass 3008) and Glc3Man7GlcNAc2 (mass 2600) were also observed (67), however they were at lower relative intensities compared to the A ion group (FIG. 21C). […] Mixing CHO and Lec1 cells in various proportions confirmed that relative differences in expression of N-glycan structures can be determined using MALDI TOF (FIG. 21G).

[3] = system: PL/J and C57/B6 T cell cultures; assay: L-PHA staining of mouse CD3+ T cells stimulated with anti-CD3, FACS; format: cell-based; settings: listed as SW
Protocol: Mice used for L-PHA staining and quantitative RT-PCR were sex and age matched. […] 129/Sv mice were from an original Mgat5 gene targeted population (28). All other mice (SJL, NOD, Balb/c and B10.S) were obtained from Jackson Laboratories. […] Mouse and Jurkat cells were stained with L-PHA and LEA by first blocking with PBA (2% bovine serum albumin/0.01% azide/PBS) for 10 min at 4° C. and then incubated with 4 μg/ml of L-PHA-FITC (Vector Laboratories Inc.) or 20 μg/ml of LEA-FITC (Sigma) in PBA for 40 min at 4° C. and analyzed by a BD FACSCalihur (BD Pharmingen, San Diego, Calif.). The level of lectin binding was normalized by untreated control and calculated as a percentage (Sample intensity/control intensity-1) %.
Mice used for L-PHA staining and quantitative RT-PCR were sex and age matched. […] 129/Sv mice were from the original Mgat5 gene targeted population (28). All other mice (SJL, NOD, Balb/c and B10.S) were obtained from Jackson Laboratories. Mouse cells were stained with anti-CD4 (RM4-5), anti-CD8 (53-6.7), anti-CD45R (RA3-6B2) from eBioscience, and L-PHA (4 μg/ml) and LEA (20 μg/ml) from Sigma. […] The indicated monosaccharides and/or metabolites were added daily except glucose which was added only at time zero. […] The plateau or highest non-toxic dose is shown.

CHO cells [4] = assay: L-PHA and ConA lectin staining of CHO cells by FACS; format: cell-based, Chinese Hamster; settings: CHO cells treated with inhibitor
Source text: as §1

[5] = system: PL/J and C57/B6 T cell cultures; assay: CFSE proliferation of mouse CD3+ T cells stimulated with anti-CD3; format: cell-based; settings: wild type PL/J and C57/B6 T cells

CC(=O)N[C@H]1[C@@H](OP(=O)(O)OP(=O)(O)OC[C@H]2O[C@@H](n3ccc(=O)[nH]c3=O)[C@H](O)[C@@H]2O)O[C@H](CO)[C@@H](O)[C@@H]1O [UDP-GlcNAc, UDP-N-acetylglucosamine]
Km (MGAT5 enzyme): ~10 mM and ~11 mM and 11 mM
Km (MGAT4): ~5 mM
Km [1]: 0.00713 mM
Km (MGAT1): 0.04 mM
Km (MGAT2): 0.9 mM

O[C@H]1[C@H]2[C@H](O)CCCN2C[C@H]1O [swainsonine]
MALDI TOF profile of N-glycans (accumulated structures) (CHO cells [2]): accumulation of hybrid structures
β1,6GlcNAc-branched tetra-antennary N-glycans (mass 2969, structure G) (CHO cells [2]): absent
up-regulation of β1,6 GlcNAc branched N-glycans following stimulation ([3]; anti-CD3, minimal concentrations): significantly attenuated
resting levels of β1,6 GlcNAc branched N-glycans ([3]; minimal concentrations): without affecting; also recorded: do not affect
high-mannose structures as seen by ConA staining (CHO cells [4]): increased
β1,6GlcNAc-branched N-glycan expression by L-PHA staining (CHO cells [4]): dramatic reductions
reversal of supplement effect on proliferation by blocking Mgat5 N-glycan expression [5]: reversed

Reference: patent US9775859B2, “Methods and compositions for preventing and treating a disease related to glycan dysregulation” (Sinai Health System, priority 2005, dated 2017)
